What was measured:
Assay type in all cases: cell-based
[1] = biological target: T1, HER2 YVMA (Homo sapiens, UniProt P04626, INS775YVMA); experiment: BaF3 cell proliferation assay, HER2 YVMA (Table B); details: potency code, 3 days, CellTiterGlo, read-out: HER2 YVMA (Activity for Inhibiting HER2)
T1 construct: expressed in transfected cells; host or cells: BaF3 (murine pro-B)

[2] = biological target: T2, HER2 WT (Homo sapiens, UniProt P04626); experiment: Activity for inhibiting HER2 (Table B), HER2 WT
[3] = biological target: T3, EGFR V3 (Homo sapiens, UniProt P00533, DELINS30-297G); experiment: BaF3 cell proliferation assay, EGFR V3 (Table A); details: potency code, 3 days, CellTiterGlo, read-out: EGFR V3 (Activity for Inhibiting EGFR)
T3 construct: expressed in transfected cells; host or cells: BaF3 (murine pro-B), retroviral pMXs-IRES-Blasticidin
Method in brief: (§1)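 Proliferation read-out is used in BaF3 cells engineered to express each EGFR or HER2 form; EC50 is derived from it. Transduced populations are selected with Blasticidin, washed in PBS and cultured without IL-3.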

[4] = biological target: T4, HER2 S310F (Homo sapiens, UniProt P04626, S310F); experiment: BaF3 cell proliferation assay, HER2 S310F (Table B); details: potency code, 3 days, CellTiterGlo, read-out: HER2 S310F (Activity for Inhibiting HER2)
T4 construct: expressed in transfected cells; host or cells: BaF3 (murine pro-B)

[5] = biological target: T5, EGFR WT (Homo sapiens, UniProt P00533); experiment: Activity for inhibiting EGFR (Table A), EGFR WT; details: read-out: EGFR WT, potency code (IC50)
[6] = biological target: T3, EGFR V3; experiment: Activity for inhibiting EGFR (Table A), EGFR V3 (EGFR-Viii); details: read-out: EGFR V3, potency code (IC50)
[7] = biological target: T6, EGFR SVD (Homo sapiens, UniProt P00533, DUP768-770); experiment: Activity for inhibiting EGFR (Table A), EGFR SVD; details: read-out: EGFR SVD, potency code (IC50)
T6 construct: expressed in transfected cells; host or cells: BaF3 (murine pro-B), retroviral pMXs-IRES-Blasticidin

[8] = biological target: T7, EGFR NPH (Homo sapiens, UniProt P00533, DUP771-773); experiment: BaF3 cell proliferation assay, EGFR NPH (Table A); details: potency code, 3 days, CellTiterGlo, read-out: EGFR NPH (Activity for Inhibiting EGFR)
T7 construct: expressed in transfected cells; host or cells: BaF3 (murine pro-B), retroviral pMXs-IRES-Blasticidin
Experimental: (§2) Retroviral Production: EGFR mutants were subcloned into pMXs-IRES-Blasticidin (RTV-016, Cell Biolabs, San Diego, Calif.). Retroviral expression vector retrovirus was produced by transient transfection of HEK 293T cells with the retroviral EGFR mutant expression vector pMXs-IRES-Blasticidin (RTV-016, Cell Biolabs), pCMV-Gag-Pol vector and pCMV-VSV-G-Envelope vector. Briefly, HEK 293T/17 cells were plated in 100 mm collagen coated plate (354450, Corning Life Sciences, Tewksbury, Mass.) (4×10^5 per plate) and incubated overnight. The next day, retroviral plasmids (3 μg of EGFR mutant, 1.0 μg of pCMV-Gag-Pol and 0.5 μg pCMV-VSV-G) were mixed in 500 μl of Optimem (31985, Life Technologies). The mixture was incubated at room temperature for 5 min and then added to Optimem containing transfection reagent Lipofectamine (11668, Invitrogen) and incubated for 20 minutes. Mixture was then added dropwise to HEK 293T cells. The next day the medium was replaced with fresh culture medium and retrovirus was harvested @ 24 and 48 hrs.
(§3) Generation of EGFR mutant stable cell lines: BaF3 cells (1.5E5 cells) were infected with 1 ml of viral supernatant supplemented with 8 μg/ml polybrene by centrifuging for 30 min at 1000 rpm. Cells were placed in a 37° C. incubator overnight. Cells were then spun for 5 minutes to pellet the cells. Supernatant was removed and cells re-infected a fresh 1 ml of viral supernatant supplemented with 8 μg/ml polybrene by centrifuging for 30 min at 1000 rpm. Cells were placed in 37° C. incubator overnight. […] After 48 hours cells were selected for retroviral infection in 10 μg/ml Blasticidin for one week. Blasticidin resistant populations were washed twice in phosphate buffered saline before plating in media lacking IL-3 to select for IL-3 independent growth.
(§4) EC50 values were determined with the same application.

[9] = biological target: T2, HER2 WT; experiment: BaF3 cell proliferation assay, HER2 WT (Table B); details: potency code, 3 days, CellTiterGlo, read-out: HER2 WT (Activity for Inhibiting HER2)
[10] = biological target: T5, EGFR WT; experiment: BaF3 cell proliferation assay, EGFR WT (Table A); details: potency code, 3 days, CellTiterGlo, read-out: EGFR WT (Activity for Inhibiting EGFR)
Method in brief: as §1

[11] = biological target: T7, EGFR NPH; experiment: Activity for inhibiting EGFR (Table A), EGFR NPH; details: read-out: EGFR NPH, potency code (IC50)
[12] = biological target: T6, EGFR SVD; experiment: BaF3 cell proliferation assay, EGFR SVD (Table A); details: potency code, 3 days, CellTiterGlo, read-out: EGFR SVD (Activity for Inhibiting EGFR)
Experimental: as §2, §3, §4

[13] = biological target: T4, HER2 S310F; experiment: Activity for inhibiting HER2 (Table B), HER2 S310F; details: read-out: HER2 S310F, potency code (IC50)
Experimental: as §4

[14] = biological target: T1, HER2 YVMA; experiment: Activity for inhibiting HER2 (Table B), HER2 YVMA; details: read-out: HER2 YVMA, potency code (IC50)
Experimental: as §4

[15] = Table B, read-out: HER2 WT, potency code (IC50)
[16] = text lists of compounds, read-out: IC50 value for inhibiting wild-type HER2

T7 sequence (P00533 with tags, fused parts or gaps DUP771-773): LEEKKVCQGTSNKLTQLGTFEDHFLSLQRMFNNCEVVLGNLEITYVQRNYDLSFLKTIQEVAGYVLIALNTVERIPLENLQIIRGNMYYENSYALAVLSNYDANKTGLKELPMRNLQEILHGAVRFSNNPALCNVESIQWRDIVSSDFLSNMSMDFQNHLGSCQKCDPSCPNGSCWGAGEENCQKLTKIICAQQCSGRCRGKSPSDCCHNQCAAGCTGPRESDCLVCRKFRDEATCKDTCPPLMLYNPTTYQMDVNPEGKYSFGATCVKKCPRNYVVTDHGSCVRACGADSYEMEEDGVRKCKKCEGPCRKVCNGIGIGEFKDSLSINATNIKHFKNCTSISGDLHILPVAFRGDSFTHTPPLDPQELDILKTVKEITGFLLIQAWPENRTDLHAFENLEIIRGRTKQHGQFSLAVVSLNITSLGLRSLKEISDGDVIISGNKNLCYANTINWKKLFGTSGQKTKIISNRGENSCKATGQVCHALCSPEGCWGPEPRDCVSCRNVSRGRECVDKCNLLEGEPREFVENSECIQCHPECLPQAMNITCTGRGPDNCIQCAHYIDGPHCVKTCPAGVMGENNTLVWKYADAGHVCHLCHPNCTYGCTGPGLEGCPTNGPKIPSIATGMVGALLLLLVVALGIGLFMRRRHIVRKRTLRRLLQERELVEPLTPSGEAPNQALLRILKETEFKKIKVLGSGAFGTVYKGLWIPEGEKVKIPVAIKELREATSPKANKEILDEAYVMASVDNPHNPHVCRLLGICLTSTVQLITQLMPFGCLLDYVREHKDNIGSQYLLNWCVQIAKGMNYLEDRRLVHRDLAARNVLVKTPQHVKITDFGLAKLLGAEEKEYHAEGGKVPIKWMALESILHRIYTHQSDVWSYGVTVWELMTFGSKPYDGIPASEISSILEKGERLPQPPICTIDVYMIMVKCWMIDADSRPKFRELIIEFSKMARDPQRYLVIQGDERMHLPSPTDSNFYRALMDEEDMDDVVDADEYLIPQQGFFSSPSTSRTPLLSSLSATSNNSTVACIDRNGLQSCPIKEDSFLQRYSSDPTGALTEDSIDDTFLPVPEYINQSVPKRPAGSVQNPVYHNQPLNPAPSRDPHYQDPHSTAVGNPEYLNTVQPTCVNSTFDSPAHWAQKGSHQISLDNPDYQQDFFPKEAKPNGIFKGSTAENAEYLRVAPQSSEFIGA
T6 sequence (P00533 with tags, fused parts or gaps DUP768-770): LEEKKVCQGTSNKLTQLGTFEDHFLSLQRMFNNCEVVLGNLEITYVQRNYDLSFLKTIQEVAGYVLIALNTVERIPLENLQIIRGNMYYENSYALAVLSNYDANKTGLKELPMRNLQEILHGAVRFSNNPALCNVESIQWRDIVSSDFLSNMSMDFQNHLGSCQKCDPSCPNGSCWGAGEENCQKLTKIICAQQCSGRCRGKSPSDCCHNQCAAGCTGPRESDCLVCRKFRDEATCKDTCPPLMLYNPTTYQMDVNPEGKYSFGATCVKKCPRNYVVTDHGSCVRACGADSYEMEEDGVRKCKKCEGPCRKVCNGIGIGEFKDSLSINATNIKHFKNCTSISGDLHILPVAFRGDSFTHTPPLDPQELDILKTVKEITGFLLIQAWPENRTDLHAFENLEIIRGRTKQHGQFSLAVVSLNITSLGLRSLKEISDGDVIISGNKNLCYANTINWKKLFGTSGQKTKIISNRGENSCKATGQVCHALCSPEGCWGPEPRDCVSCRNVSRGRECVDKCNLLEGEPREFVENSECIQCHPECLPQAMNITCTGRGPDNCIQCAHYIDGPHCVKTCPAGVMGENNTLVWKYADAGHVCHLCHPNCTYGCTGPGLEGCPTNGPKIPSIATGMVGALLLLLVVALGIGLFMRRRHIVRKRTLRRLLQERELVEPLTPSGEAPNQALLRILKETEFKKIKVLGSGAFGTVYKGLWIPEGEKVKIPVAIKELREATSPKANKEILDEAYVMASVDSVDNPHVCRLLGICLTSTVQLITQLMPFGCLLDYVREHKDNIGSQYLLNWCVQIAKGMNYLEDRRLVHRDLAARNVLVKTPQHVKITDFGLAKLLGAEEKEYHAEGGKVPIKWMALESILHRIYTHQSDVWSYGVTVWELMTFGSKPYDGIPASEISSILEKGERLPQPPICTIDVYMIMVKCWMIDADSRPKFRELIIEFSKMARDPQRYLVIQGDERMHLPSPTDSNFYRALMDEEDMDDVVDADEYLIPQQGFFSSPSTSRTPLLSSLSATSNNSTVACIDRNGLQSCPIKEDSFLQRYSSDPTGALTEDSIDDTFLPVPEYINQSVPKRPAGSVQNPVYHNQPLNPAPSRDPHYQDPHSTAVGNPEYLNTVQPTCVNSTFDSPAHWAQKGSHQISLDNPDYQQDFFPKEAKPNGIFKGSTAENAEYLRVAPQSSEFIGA
T1 sequence (P04626 with tags, fused parts or gaps INS775YVMA): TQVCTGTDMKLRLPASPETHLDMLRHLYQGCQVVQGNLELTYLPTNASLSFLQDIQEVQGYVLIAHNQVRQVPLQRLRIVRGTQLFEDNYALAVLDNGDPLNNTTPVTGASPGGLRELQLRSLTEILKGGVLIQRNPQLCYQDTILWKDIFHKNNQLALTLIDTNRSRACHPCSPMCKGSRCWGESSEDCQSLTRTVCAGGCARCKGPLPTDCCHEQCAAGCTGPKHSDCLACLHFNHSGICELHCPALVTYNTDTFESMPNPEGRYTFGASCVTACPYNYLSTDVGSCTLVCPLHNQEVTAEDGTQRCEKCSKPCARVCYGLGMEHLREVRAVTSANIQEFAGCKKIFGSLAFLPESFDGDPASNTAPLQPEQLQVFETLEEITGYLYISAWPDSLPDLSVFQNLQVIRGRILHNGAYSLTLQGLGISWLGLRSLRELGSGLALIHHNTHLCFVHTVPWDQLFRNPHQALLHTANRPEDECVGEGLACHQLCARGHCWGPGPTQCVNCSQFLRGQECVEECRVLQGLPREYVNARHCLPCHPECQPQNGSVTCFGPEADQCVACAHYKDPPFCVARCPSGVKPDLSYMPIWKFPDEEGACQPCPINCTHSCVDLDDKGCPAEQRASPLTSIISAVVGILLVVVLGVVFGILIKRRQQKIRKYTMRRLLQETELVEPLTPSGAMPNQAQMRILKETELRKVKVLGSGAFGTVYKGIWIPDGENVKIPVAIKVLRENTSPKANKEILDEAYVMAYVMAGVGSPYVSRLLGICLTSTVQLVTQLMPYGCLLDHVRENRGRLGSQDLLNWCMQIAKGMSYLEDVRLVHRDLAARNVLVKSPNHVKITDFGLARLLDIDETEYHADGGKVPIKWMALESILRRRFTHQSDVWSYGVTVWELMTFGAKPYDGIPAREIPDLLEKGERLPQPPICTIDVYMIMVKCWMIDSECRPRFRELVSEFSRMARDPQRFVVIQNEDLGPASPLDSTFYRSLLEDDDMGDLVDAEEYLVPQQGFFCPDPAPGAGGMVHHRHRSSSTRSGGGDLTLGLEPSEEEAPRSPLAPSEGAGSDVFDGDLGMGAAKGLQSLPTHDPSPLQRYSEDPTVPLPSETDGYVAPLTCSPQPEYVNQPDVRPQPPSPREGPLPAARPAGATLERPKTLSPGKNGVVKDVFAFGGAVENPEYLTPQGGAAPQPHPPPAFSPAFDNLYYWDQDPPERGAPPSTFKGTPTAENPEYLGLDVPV
T4 sequence (P04626 23-1255 S310F): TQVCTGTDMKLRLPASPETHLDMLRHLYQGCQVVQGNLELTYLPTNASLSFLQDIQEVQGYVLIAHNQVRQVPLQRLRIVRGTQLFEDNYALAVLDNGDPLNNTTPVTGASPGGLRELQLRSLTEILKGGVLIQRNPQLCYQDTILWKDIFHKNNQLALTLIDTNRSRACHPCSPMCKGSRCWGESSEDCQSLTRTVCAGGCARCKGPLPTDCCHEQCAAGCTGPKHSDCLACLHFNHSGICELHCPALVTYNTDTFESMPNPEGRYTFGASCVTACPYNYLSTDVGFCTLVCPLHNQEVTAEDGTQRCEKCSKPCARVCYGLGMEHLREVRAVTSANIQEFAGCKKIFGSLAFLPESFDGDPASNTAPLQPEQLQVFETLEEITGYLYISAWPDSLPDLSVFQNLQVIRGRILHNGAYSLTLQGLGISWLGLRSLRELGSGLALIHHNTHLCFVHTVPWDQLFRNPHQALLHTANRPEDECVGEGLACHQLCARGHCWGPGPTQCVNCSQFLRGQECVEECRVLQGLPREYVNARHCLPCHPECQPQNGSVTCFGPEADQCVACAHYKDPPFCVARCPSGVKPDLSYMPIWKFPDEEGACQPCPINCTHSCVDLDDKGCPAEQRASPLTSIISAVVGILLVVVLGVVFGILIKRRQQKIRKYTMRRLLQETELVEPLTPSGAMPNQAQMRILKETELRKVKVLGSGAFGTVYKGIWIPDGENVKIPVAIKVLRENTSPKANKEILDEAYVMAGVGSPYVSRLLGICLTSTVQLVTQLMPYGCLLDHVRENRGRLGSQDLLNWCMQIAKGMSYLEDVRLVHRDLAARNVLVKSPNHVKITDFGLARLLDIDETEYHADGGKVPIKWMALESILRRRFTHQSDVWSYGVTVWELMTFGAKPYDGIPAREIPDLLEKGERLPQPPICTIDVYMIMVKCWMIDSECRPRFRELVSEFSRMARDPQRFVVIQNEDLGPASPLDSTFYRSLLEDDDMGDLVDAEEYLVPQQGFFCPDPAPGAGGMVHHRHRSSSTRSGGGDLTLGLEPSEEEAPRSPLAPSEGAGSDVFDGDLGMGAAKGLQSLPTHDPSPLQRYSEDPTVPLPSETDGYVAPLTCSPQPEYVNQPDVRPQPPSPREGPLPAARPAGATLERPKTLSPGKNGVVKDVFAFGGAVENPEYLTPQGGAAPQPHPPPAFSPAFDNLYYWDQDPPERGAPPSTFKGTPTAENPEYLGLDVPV

Row | Compound | IC50 [1] | IC50 [2, 15] | IC50 [2, 16] | IC50 [3] | IC50 [4] | IC50 [5] | IC50 [6] | IC50 [7] | IC50 [8] | IC50 [9] | IC50 [10] | IC50 [11] | IC50 [12] | IC50 [13] | IC50 [14]
1 | C=CC(=O)Nc1cc2c(Nc3ccc(OCc4ccccn4)c(Cl)c3)ncnc2cc1OCCN1CC2CC1CO2 (stereo not drawn) [compound 39] | 50 to 100 nM | 5 to 10 nM | ≤ 10 nM | 20 to 30 nM | 10 to 20 nM | 500 to 1000 nM | 20 to 30 nM | 30 to 50 nM | 50 to 100 nM | 5 to 10 nM | 500 to 1000 nM | 50 to 100 nM | 30 to 50 nM | 10 to 20 nM | 50 to 100 nM
2 | C=CC(=O)Nc1cc2c(Nc3ccc(Oc4ccc(C)nc4)c(C)c3)ncnc2cc1OC1CCN(C)C1 (stereo not drawn) [compound 68] | 300 to 500 nM | 10 to 20 nM | ≤ 20 nM | 100 to 200 nM | 30 to 50 nM | 500 to 1000 nM | 100 to 200 nM | 500 to 1000 nM | 500 to 1000 nM | 10 to 20 nM | 500 to 1000 nM | 500 to 1000 nM | 500 to 1000 nM | 30 to 50 nM | 300 to 500 nM
3 | C=CC(=O)Nc1cc2c(Nc3ccc(OCc4ccccn4)c(Cl)c3)ncnc2cc1OCCN1CC2COCC2C1 (stereo not drawn) [compound 51] | 50 to 100 nM | 5 to 10 nM | ≤ 10 nM | 20 to 30 nM | 10 to 20 nM | 500 to 1000 nM | 20 to 30 nM | 30 to 50 nM | 50 to 100 nM | 5 to 10 nM | 500 to 1000 nM | 50 to 100 nM | 30 to 50 nM | 10 to 20 nM | 50 to 100 nM
4 | C=CC(=O)Nc1cc2c(Nc3ccc(OCc4ccccn4)c(Cl)c3)ncnc2cc1OCCN1C2CCC1COC2 [compound 31] | 100 to 200 nM | 5 to 10 nM | ≤ 10 nM | 30 to 50 nM | 30 to 50 nM | 500 to 1000 nM | 30 to 50 nM | 50 to 100 nM | 50 to 100 nM | 5 to 10 nM | 500 to 1000 nM | 50 to 100 nM | 50 to 100 nM | 30 to 50 nM | 100 to 200 nM
5 | C=CC(=O)Nc1cc2c(Nc3ccc(OCc4ccccn4)c(Cl)c3)ncnc2cc1OCCN1CC2(CCO2)C1 [compound 52] | 100 to 200 nM | 5 to 10 nM | ≤ 10 nM | 20 to 30 nM | 20 to 30 nM | 500 to 1000 nM | 20 to 30 nM | 50 to 100 nM | 50 to 100 nM | 5 to 10 nM | 500 to 1000 nM | 50 to 100 nM | 50 to 100 nM | 20 to 30 nM | 100 to 200 nM
6 | C=CC(=O)Nc1cc2c(Nc3ccc(OCc4ccccn4)c(Cl)c3)ncnc2cc1OCCN(C)C [compound 19] | 100 to 200 nM | 5 to 10 nM | ≤ 10 nM | 20 to 30 nM | 20 to 30 nM | 200 to 300 nM | 20 to 30 nM | 100 to 200 nM | 100 to 200 nM | 5 to 10 nM | 200 to 300 nM | 100 to 200 nM | 100 to 200 nM | 20 to 30 nM | 100 to 200 nM
7 | C=CC(=O)Nc1cc2c(Nc3ccc(OCc4ccccn4)c(Cl)c3)ncnc2cc1OCCCN1CCCC1 [compound 22] | 30 to 50 nM | < 5 nM | ≤ 5 nM | 20 to 30 nM | 5 to 10 nM | 50 to 100 nM | 20 to 30 nM | 10 to 20 nM | 20 to 30 nM | < 5 nM | 50 to 100 nM | 20 to 30 nM | 10 to 20 nM | 5 to 10 nM | 30 to 50 nM
8 | C=CC(=O)Nc1cc2c(Nc3ccc(Oc4ccccc4)cc3)ncnc2cc1OCCN1CCOCC1 [compound 63] | 300 to 500 nM | 30 to 50 nM | ≤ 50 nM | 50 to 100 nM | 50 to 100 nM | > 1000 nM | 50 to 100 nM | 300 to 500 nM | 300 to 500 nM | 30 to 50 nM | > 1000 nM | 300 to 500 nM | 300 to 500 nM | 50 to 100 nM | 300 to 500 nM

From US11034672B1, “Tyrosine kinase inhibitor compositions, methods of making and methods of use” (Black Diamond Therapeutics, Inc., priority 2018, dated 2021)
